Data published in patent publication US10392391B2 (Vertex Pharmaceuticals Incorporated, priority 2012, dated 2019).
pKi: −log10 of the molar value.

These molecules were tested against ATR kinase (full-length ATR) (Homo sapiens (Human), UniProt Q13535) (assay: ATR inhibition assay (radioactive-phosphate incorporation)). Settings: not given.
Format: biochemical
Method in brief: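 Radiometric 33P incorporation by 5 nM full-length ATR into 800 μM target peptide with 10 μM [γ-33P]ATP, in 50 mM Tris/HCl pH 7.5, 10 mM MgCl2, 1 mM DTT, 7% DMSO, 25° C. Compound pre-incubated 10 minutes; reaction stopped after 24 hours, captured on phosphocellulose. Ki(app) from non-linear regression of initial rates.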

Sequence of ATR kinase (full-length ATR) (Q13535 whole entry): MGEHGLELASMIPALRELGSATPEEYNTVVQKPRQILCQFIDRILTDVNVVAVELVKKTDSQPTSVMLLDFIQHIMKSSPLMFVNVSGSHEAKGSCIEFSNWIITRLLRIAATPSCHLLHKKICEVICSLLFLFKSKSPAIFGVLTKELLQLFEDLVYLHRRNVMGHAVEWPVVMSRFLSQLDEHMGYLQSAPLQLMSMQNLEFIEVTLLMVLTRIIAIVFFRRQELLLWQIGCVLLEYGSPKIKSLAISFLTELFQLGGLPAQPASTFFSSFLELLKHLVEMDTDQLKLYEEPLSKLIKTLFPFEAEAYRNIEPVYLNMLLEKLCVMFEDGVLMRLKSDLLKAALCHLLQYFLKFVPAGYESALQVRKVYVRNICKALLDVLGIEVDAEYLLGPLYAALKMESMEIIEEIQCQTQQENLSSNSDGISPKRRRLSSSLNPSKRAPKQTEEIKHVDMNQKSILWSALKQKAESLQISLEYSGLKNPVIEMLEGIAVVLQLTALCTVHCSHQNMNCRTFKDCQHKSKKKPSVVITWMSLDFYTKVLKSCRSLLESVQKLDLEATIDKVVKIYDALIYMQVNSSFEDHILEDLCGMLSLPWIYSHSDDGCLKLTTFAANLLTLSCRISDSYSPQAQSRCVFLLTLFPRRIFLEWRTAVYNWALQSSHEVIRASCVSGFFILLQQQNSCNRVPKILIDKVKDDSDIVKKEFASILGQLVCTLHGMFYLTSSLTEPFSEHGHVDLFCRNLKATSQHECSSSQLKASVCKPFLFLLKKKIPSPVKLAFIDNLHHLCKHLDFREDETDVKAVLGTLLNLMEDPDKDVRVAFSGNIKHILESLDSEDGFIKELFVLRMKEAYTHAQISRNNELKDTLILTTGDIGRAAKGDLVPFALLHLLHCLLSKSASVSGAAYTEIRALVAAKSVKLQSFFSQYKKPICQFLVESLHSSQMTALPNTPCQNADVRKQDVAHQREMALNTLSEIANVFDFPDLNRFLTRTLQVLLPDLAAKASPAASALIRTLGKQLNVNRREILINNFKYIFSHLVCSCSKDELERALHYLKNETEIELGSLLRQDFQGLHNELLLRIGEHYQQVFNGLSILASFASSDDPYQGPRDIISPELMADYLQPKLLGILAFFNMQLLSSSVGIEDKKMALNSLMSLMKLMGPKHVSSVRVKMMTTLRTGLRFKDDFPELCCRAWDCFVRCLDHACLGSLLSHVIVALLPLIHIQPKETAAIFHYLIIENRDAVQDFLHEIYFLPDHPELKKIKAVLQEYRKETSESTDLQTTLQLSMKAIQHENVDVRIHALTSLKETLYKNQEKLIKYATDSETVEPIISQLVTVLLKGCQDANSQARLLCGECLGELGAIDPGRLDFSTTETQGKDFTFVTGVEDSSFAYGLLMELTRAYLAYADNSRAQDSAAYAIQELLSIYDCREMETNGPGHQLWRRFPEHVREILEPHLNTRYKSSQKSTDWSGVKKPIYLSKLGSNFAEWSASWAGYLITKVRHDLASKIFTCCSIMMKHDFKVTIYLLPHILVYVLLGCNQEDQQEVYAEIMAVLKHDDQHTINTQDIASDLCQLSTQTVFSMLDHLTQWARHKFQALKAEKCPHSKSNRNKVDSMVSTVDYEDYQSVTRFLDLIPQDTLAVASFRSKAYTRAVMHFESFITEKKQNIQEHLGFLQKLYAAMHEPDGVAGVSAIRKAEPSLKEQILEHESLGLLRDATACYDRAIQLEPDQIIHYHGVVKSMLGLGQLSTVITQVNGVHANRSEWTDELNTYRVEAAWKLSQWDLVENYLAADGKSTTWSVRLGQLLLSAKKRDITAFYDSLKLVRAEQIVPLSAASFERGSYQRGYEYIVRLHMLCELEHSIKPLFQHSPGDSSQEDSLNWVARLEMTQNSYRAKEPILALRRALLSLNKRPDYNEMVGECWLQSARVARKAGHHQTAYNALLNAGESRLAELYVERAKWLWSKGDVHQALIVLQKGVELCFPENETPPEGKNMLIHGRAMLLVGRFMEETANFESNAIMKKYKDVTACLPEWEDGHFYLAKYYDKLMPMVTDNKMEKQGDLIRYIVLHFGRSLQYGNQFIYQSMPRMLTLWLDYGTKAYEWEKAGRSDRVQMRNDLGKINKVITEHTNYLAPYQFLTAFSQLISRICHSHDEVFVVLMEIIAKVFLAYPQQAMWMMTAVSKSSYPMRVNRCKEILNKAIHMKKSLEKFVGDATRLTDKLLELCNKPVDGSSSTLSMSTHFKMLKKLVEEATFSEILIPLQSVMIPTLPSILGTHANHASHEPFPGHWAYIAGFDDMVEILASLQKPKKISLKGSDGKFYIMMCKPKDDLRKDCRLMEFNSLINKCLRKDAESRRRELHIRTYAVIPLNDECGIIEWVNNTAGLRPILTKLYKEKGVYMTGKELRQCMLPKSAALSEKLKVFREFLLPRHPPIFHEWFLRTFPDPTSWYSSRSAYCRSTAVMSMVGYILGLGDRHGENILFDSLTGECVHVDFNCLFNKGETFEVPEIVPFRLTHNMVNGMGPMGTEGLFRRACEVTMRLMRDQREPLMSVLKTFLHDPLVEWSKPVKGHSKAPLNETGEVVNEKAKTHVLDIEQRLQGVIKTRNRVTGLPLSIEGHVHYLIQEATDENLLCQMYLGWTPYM

With `CN(C)CCc1cnn(-c2ccncc2NC(=O)c2c(N)nn3cc(F)cnc23)c1` [I-N-9, 2-amino-N-(4-(4-(2-(dimethylamino)ethyl)-1H-pyrazol-1-yl)pyridin-3-yl)-6-fluoropyrazolo[1,5-a]pyrimidine-3-carboxamide] as the molecule, how does the pKi read?
Its pKi is 5.30 to 6.00.

Same assay, conditions: Ki(app), 5 nM full-length ATR, 10 μM ATP, 25° C.

`Cc1nc(C(=O)N2CCN(C)CC2)ccc1-c1ccncc1NC(=O)c1c(N)nn2cc(F)cnc12` [I-C-39, 2-amino-6-fluoro-N-(2-methyl-6-(4-methylpiperazine-1-carbonyl)-[3,4′-bipyridin]-3′-yl)pyrazolo[1,5-a]pyrimidine-3-carboxamide] was tested. Which pKi did it give?
Its pKi is 6.00 to 8.00.

`N#CCc1cnc2c(C(=O)Nc3cnccc3OCCCO)c(N)nn2c1` [I-O-40, 2-amino-6-(cyanomethyl)-N-(4-(3-hydroxypropoxy)pyridin-3-yl)pyrazolo[1,5-a]pyrimidine-3-carboxamide] was tested. Which pKi did it give?
Its pKi is > 8.00.

With `C[C@@H]1CN(C2COC2)CCN1c1ccncc1NC(=O)c1c(N)nn2cc(F)cnc12` [I-N-23, (R)-2-amino-6-fluoro-N-(4-(2-methyl-4-(oxetan-3-yl)piperazin-1-yl)pyridin-3-yl)pyrazolo[1,5-a]pyrimidine-3-carboxamide] as the molecule, how does the pKi read?
Its pKi is 6.00 to 8.00.

`Nc1nn2cc(F)cnc2c1C(=O)Nc1cncc(F)c1N1CCN2C(=O)CC[C@@H]2C1` [I-N-182, (R)-2-amino-6-fluoro-N-(5-fluoro-4-(6-oxohexahydropyrrolo[1,2-a]pyrazin-2(1H)-yl)pyridin-3-yl)pyrazolo[1,5-a]pyrimidine-3-carboxamide] was tested. Which pKi did it give?
The pKi was 6.00 to 8.00.

`Nc1nn2cc(F)cnc2c1C(=O)Nc1cnccc1OC1CCN(C2COC2)CC1` [I-O-11, 2-amino-6-fluoro-N-(4-((1-(oxetan-3-yl)piperidin-4-yl)oxy)pyridin-3-yl)pyrazolo[1,5-a]pyrimidine-3-carboxamide] was tested. Which pKi did it give?
Its pKi is 6.00 to 8.00.

With `Cc1cncc(NC(=O)c2c(N)nn3cc(F)cnc23)c1N1CCN(C2CCOCC2)CC1` [I-N-123, 2-amino-6-fluoro-N-(5-methyl-4-(4-(tetrahydro-2H-pyran-4-yl)piperazin-1-yl)pyridin-3-yl)pyrazolo[1,5-a]pyrimidine-3-carboxamide] as the molecule, how does the pKi read?
Its pKi is 6.00 to 8.00.

`CN1CCc2c(cncc2NC(=O)c2c(N)nn3cc(F)cnc23)C1` [I-C-8, 2-amino-6-fluoro-N-(7-methyl-5,6,7,8-tetrahydro-2,7-naphthyridin-4-yl)pyrazolo[1,5-a]pyrimidine-3-carboxamide] was tested. Which pKi did it give?
The pKi was 6.00 to 8.00.

With `Nc1nn2cc(F)cnc2c1C(=O)Nc1cnccc1N1CCN2[C@@H](CCS2(=O)=O)C1` [I-N-247, (S)-2-amino-N-(4-(1,1-dioxidotetrahydro-2H-isothiazolo[2,3-a]pyrazin-5(3H)-yl)pyridin-3-yl)-6-fluoropyrazolo[1,5-a]pyrimidine-3-carboxamide] as the molecule, how does the pKi read?
Its pKi is 6.00 to 8.00.

With `CN1CCC(Oc2ccncc2NC(=O)c2c(N)nn3cc(Cl)cnc23)CC1` [I-O-64, 2-amino-6-chloro-N-(4-((1-methylpiperidin-4-yl)oxy)pyridin-3-yl)pyrazolo[1,5-a]pyrimidine-3-carboxamide] as the molecule, how does the pKi read?
The pKi was 6.00 to 8.00.

How did the pKi turn out when `CNc1cc(N2CCN(C)CC2)c(NC(=O)c2c(N)nn3cc(F)cnc23)cn1` [I-N-129, 2-amino-6-fluoro-N-(6-(methylamino)-4-(4-methylpiperazin-1-yl)pyridin-3-yl)pyrazolo[1,5-a]pyrimidine-3-carboxamide] was run?
The pKi was 6.00 to 8.00.

`Nc1nn2cc(F)cnc2c1C(=O)Nc1cncc(Cl)c1N1CCN(C2CCOC2)CC1` (stereo not shown) [I-N-124, 2-amino-N-(5-chloro-4-(4-(tetrahydrofuran-3-yl)piperazin-1-yl)pyridin-3-yl)-6-fluoropyrazolo[1,5-a]pyrimidine-3-carboxamide] was tested. Which pKi did it give?
Its pKi is 6.00 to 8.00.

How did the pKi turn out when `COC1(CN(C)C)CCN(c2ccncc2NC(=O)c2c(N)nn3cc(Cl)cnc23)CC1` [I-N-46, 2-amino-6-chloro-N-(4-(4-((dimethylamino)methyl)-4-methoxypiperidin-1-yl)pyridin-3-yl)pyrazolo[1,5-a]pyrimidine-3-carboxamide] was run?
Its pKi is 6.00 to 8.00.

With `Cc1ccncc1-c1ccncc1NC(=O)c1c(N)nn2cc(F)cnc12` [I-C-30, 2-amino-6-fluoro-N-(4-methyl-[3,4′-bipyridin]-3′-yl)pyrazolo[1,5-a]pyrimidine-3-carboxamide] as the molecule, how does the pKi read?
The pKi was 6.00 to 8.00.

`Nc1nn2cc(F)cnc2c1C(=O)Nc1cnccc1N1CCC(C(=O)N2CCC2)CC1` [I-G-77, 2-amino-N-(4-(4-(azetidine-1-carbonyl)piperidin-1-yl)pyridin-3-yl)-6-fluoropyrazolo[1,5-a]pyrimidine-3-carboxamide] was tested. Which pKi did it give?
Its pKi is 6.00 to 8.00.

With `Cn1ccnc1-c1ccncc1NC(=O)c1c(N)nn2cc(F)cnc12` [I-C-55, 2-amino-6-fluoro-N-(4-(1-methyl-1H-imidazol-2-yl)pyridin-3-yl)pyrazolo[1,5-a]pyrimidine-3-carboxamide] as the molecule, how does the pKi read?
Its pKi is 6.00 to 8.00.

With `Nc1nn2cc(F)cnc2c1C(=O)Nc1cnccc1N1CCC(C(=O)N2CC(F)(F)C2)CC1` [I-G-80, 2-amino-N-(4-(4-(3,3-difluoroazetidine-1-carbonyl)piperidin-1-yl)pyridin-3-yl)-6-fluoropyrazolo[1,5-a]pyrimidine-3-carboxamide] as the molecule, how does the pKi read?
The pKi was 6.00 to 8.00.

How did the pKi turn out when `Nc1nn2cc(Cl)cnc2c1C(=O)Nc1cnccc1N1CCN2CCC[C@H]2C1` [I-N-71, (S)-2-amino-6-chloro-N-(4-(hexahydropyrrolo[1,2-a]pyrazin-2(1H)-yl)pyridin-3-yl)pyrazolo[1,5-a]pyrimidine-3-carboxamide] was run?
Its pKi is 6.00 to 8.00.

`CS(=O)(=O)c1ccc(-c2ccncc2NC(=O)c2c(N)nn3cc(F)cnc23)cc1` [I-C-61, 2-amino-6-fluoro-N-(4-(4-(methylsulfonyl)phenyl)pyridin-3-yl)pyrazolo[1,5-a]pyrimidine-3-carboxamide] was tested. Which pKi did it give?
The pKi was 6.00 to 8.00.

`CN1C(=O)CCC12CCN(c1ccncc1NC(=O)c1c(N)nn3cc(F)cnc13)CC2` [I-N-235, 2-amino-6-fluoro-N-(4-(1-methyl-2-oxo-1,8-diazaspiro[4.5]decan-8-yl)pyridin-3-yl)pyrazolo[1,5-a]pyrimidine-3-carboxamide] was tested. Which pKi did it give?
Its pKi is 6.00 to 8.00.

`CN1CCC[C@H]1COc1ccncc1NC(=O)c1c(N)nn2cc(Cl)cnc12` [I-O-50, (S)-2-amino-6-chloro-N-(4-((1-methylpyrrolidin-2-yl)methoxy)pyridin-3-yl)pyrazolo[1,5-a]pyrimidine-3-carboxamide] was tested. Which pKi did it give?
The pKi was 6.00 to 8.00.

How did the pKi turn out when `Nc1nn2cc(Cl)cnc2c1C(=O)Nc1cnccc1N1CCC(N2CC[C@@H](F)C2)CC1` [I-N-98, (R)-2-amino-6-chloro-N-(4-(4-(3-fluoropyrrolidin-1-yl)piperidin-1-yl)pyridin-3-yl)pyrazolo[1,5-a]pyrimidine-3-carboxamide] was run?
Its pKi is 6.00 to 8.00.

With `Nc1nn2cc(F)cnc2c1C(=O)Nc1cncc(Cl)c1N1CCNCC1` [I-N-126, 2-amino-N-(5-chloro-4-(piperazin-1-yl)pyridin-3-yl)-6-fluoropyrazolo[1,5-a]pyrimidine-3-carboxamide] as the molecule, how does the pKi read?
Its pKi is 6.00 to 8.00.

How did the pKi turn out when `Cc1cncnc1-c1ccncc1NC(=O)c1c(N)nn2cc(F)cnc12` [I-C-67, 2-amino-6-fluoro-N-(4-(5-methylpyrimidin-4-yl)pyridin-3-yl)pyrazolo[1,5-a]pyrimidine-3-carboxamide] was run?
Its pKi is 6.00 to 8.00.

How did the pKi turn out when `Nc1nn2cc(F)cnc2c1C(=O)Nc1cncc(C2CC2)c1N1CCN(C2COC2)CC1` [I-N-32, 2-amino-N-(5-cyclopropyl-4-(4-(oxetan-3-yl)piperazin-1-yl)pyridin-3-yl)-6-fluoropyrazolo[1,5-a]pyrimidine-3-carboxamide] was run?
Its pKi is 6.00 to 8.00.

`Cc1ccnn1-c1ccncc1NC(=O)c1c(N)nn2cc(F)cnc12` [I-N-223, 2-amino-6-fluoro-N-(4-(5-methyl-1H-pyrazol-1-yl)pyridin-3-yl)pyrazolo[1,5-a]pyrimidine-3-carboxamide] was tested. Which pKi did it give?
Its pKi is 6.00 to 8.00.

How did the pKi turn out when `CN1CCN(C(=O)[C@H]2CC[C@@H](Oc3ccncc3NC(=O)c3c(N)nn4cc(F)cnc34)CC2)CC1` [I-O-19, 2-amino-6-fluoro-N-(4-(((1s,4s)-4-(4-methylpiperazine-1-carbonyl)cyclohexyl)oxy)pyridin-3-yl)pyrazolo[1,5-a]pyrimidine-3-carboxamide] was run?
Its pKi is 6.00 to 8.00.

With `Cc1ncc(-c2ccncc2NC(=O)c2c(N)nn3cc(F)cnc23)n1C` [I-C-77, 2-amino-N-(4-(1,2-dimethyl-1H-imidazol-5-yl)pyridin-3-yl)-6-fluoropyrazolo[1,5-a]pyrimidine-3-carboxamide] as the molecule, how does the pKi read?
The pKi was 6.00 to 8.00.

`CN1CCN(c2c(F)cncc2NC(=O)c2c(N)nn3cc(CC#N)cnc23)CC1` [I-N-80, 2-amino-6-(cyanomethyl)-N-(5-fluoro-4-(4-methylpiperazin-1-yl)pyridin-3-yl)pyrazolo[1,5-a]pyrimidine-3-carboxamide] was tested. Which pKi did it give?
The pKi was 6.00 to 8.00.

`CO[C@H]1CCN(C(=O)C2CCN(c3ccncc3NC(=O)c3c(N)nn4cc(F)cnc34)CC2)C1` [I-G-94, (S)-2-amino-6-fluoro-N-(4-(4-(3-methoxypyrrolidine-1-carbonyl)piperidin-1-yl)pyridin-3-yl)pyrazolo[1,5-a]pyrimidine-3-carboxamide] was tested. Which pKi did it give?
The pKi was 6.00 to 8.00.

How did the pKi turn out when `CN1CCN2CCN(c3ccncc3NC(=O)c3c(N)nn4cc(Cl)cnc34)CC2C1` (stereo not shown) [I-N-61, 2-amino-6-chloro-N-(4-(8-methylhexahydro-1H-pyrazino[1,2-a]pyrazin-2(6H)-yl)pyridin-3-yl)pyrazolo[1,5-a]pyrimidine-3-carboxamide] was run?
The pKi was 6.00 to 8.00.

`Nc1nn2cc(F)cnc2c1C(=O)Nc1cncc(F)c1N1CCC(C(=O)N2CCNC3CC32)CC1` (stereo not shown) [I-G-62, N-(4-(4-(2,5-diazabicyclo[4.1.0]heptane-2-carbonyl)piperidin-1-yl)-5-fluoropyridin-3-yl)-2-amino-6-fluoropyrazolo[1,5-a]pyrimidine-3-carboxamide] was tested. Which pKi did it give?
The pKi was 6.00 to 8.00.

How did the pKi turn out when `Nc1nn2cc(Cl)cnc2c1C(=O)Nc1cnccc1N1CCN(CC(F)(F)F)CC1` [I-N-67, 2-amino-6-chloro-N-(4-(4-(2,2,2-trifluoroethyl)piperazin-1-yl)pyridin-3-yl)pyrazolo[1,5-a]pyrimidine-3-carboxamide] was run?
The pKi was 6.00 to 8.00.

How did the pKi turn out when `CC(C#N)c1cnc2c(C(=O)Nc3cncc(F)c3N3CCN(C4COC4)CC3)c(N)nn2c1` (stereo not shown) [I-N-145] was run?
Its pKi is 6.00 to 8.00.
